Results: patent publication US8372600B2, “Method and apparatus for measuring changes in cell volume” (priority 2004, dated 2013)

Experiments:
[1] = test system: E. Coli strain (BL21(DE3)); assay: Antibiotic sensitivity of suspended bacteria: growth monitored by chamber resistance; assay type: cell-based; conditions: 50 μg/ml and 10 μg/ml, 24° C., FIG. 14
Experimental: To test the microfluidic chip performance with suspended cells, the first chamber was perfused with an E. Coli suspension. The E. Coli strain (BL21(DE3)) harbors a plasmid that confers resistance to kanamycin. The cells were tested for antibiotic sensitivity by adding varying concentrations of carbenicillin—an antibiotic to which the bacteria are susceptible. After filling the chamber with bacteria, flow was stopped and the chamber resistance monitored. […] By adding specific ligands, such as antibodies, to the walls of the measuring chamber, specific microorganisms can be purified, concentrated and assayed in a single step. Since cellular organelles are similar in size to bacteria, the present invention can also be used to study the metabolism of mitochondria, chloroplasts, and vesicles or organelles such as the ER.

[2] = test system: GH3 cells; conditions: previously known; cited from earlier work
[3] = test system: astrocyte RVD; assay: Astrocyte regulatory volume decrease (RVD) under a 188 mOsm hypotonic stimulus, measured as chamber resistance in the microfluidic chip; assay type: cell-based, rat; conditions: 188 mOsm stimulus; for Effect on RVD: FIG. 13
Excerpt: A microfluidic chip comprising a channel 15 μm deep and 1.5 mm wide was fabricated an connected to a fluid inlet and a fluid outlet. Along the length of the channel, there were two chambers (labeled 22 and 24 in FIGS. 1-3). Chamber 22 was configured for measuring cell volume and comprised a depth of 15 μm. Chamber 24 was deeper (55 μm) and served as a calibrating chamber for monitoring solution resistivity. Thin film platinum electrodes disposed in each chamber formed a four-point probe for measuring the chamber impedance. The chip was mounted on an acrylic platform to mate with external fluid connections. For testing adherent cells, the cells were cultured on glass coverslips and inverted on top of the chip so that the cells faced chamber 22. The coverslip was pressed against the chip with a clamp that applied a uniform force of approximately 50 N. For the electrical measurements, an active current source providing 1 μA of a 50 Hz sinusoid was applied to the two outer electrodes. Low frequency stimulation was utilized to minimize the dielectric loss in the silicon and to reduce the demands on the common mode rejection of the voltage amplifier. The voltage between the two inner electrodes was measured using a homemade instrumentation amplifier with input currents <1 pA to reduce polarization. A lock-in amplifier provided rectification and filtering.
To test the microfluidic chip performance with living cells, examination of the volume regulatory response of rat astrocytes was conducted. Solution osmolality was adjusted using mannitol, which allowed a constant ionic strength to be maintained. For the most critical tests, the solution conductivities were finely titrated to be equal at all osmotic pressures; the flow rate was constant at approximately 0.3 μl/s. FIGS. 10 and 11 show the astrocytes' response to perfusion with hypotonic and hypertonic stimuli. Hypotonic media caused a rapid (˜1 min) increase in volume followed by a slow (10 min) decrease—the well known regulatory volume decrease (RVD). RVD in astrocytes is due to the efflux of KCl and neutral organic osmolytes such as taurine. The time course and extent of RVD using 188, 220, and 273 mOsm solutions (FIG. 10) are in agreement with published data. RVD in other cell types was tested, including HEK and MDCK, and similar responses were identified. However, the RVI was only observed with mild stimuli (<345 mOsm) (FIG. 11). Similar results have been previously reported for astrocytes. The RVI under the above conditions is driven by Na^+, K^+, and Cl^− fluxes through a co-transporter.
A microfluidic chip was tested by screening peptides isolated from the tarantula Grammostola spatulata. The peptides were added to a hypotonic perfusate and their effects on astrocyte RVD were examined. […]

[4] = target: T1, P2X7 (purinergic ion channels) (Homo sapiens, UniProt Q99572); assay: Volume change of HEK cells transfected with P2X7, measured in the chamber; assay type: cell-based
T1 construct: expressed in transfected cells; host or cells: HEK cells
T1 sequence (Q99572 1-595): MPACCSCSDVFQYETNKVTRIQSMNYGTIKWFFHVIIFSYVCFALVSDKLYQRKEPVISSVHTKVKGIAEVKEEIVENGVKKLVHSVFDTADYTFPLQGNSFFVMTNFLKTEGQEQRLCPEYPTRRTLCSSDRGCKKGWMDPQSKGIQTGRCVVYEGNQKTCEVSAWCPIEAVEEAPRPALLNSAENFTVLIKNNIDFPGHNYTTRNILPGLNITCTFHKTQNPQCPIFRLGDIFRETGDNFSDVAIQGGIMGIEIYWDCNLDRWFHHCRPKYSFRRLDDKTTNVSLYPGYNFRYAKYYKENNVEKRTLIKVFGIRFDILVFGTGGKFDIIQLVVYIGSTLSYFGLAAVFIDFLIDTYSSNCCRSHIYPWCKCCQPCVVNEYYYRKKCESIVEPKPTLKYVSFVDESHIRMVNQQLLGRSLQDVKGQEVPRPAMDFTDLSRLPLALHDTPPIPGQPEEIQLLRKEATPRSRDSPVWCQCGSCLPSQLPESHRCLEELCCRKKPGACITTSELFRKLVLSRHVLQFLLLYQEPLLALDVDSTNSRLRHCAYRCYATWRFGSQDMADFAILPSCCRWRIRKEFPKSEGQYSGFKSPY
Excerpt: The chamber is sensitive to more than toxic or anisotonic media. […] Thus, the device can serve as a coarse grained substitute for common (but slow) electrophysiologically assays.

CC1(C)S[C@@H]2[C@H](NC(=O)C(C(=O)O)c3ccccc3)C(=O)N2[C@H]1C(=O)O (some centres unmarked) [Carbenicillin, carbenicillin]
Time until growth was visibly slowed [1]: ≤ 15 min
Effect on bacterial growth ([1]; concentration dependent): visibly slowed growth

GsMTx1
Effect on swelling-induced Ca2+ uptake [2]: block
Reduction of RVD ([3]; 100 pM peptide in hypotonic perfusate): about 50%
Effect on RVD ([3]; 1 nM peptide in hypotonic perfusate): completely blocked
Effect on RVD ([3]; 10 nM peptide in hypotonic perfusate): completely blocked
Effect on RVD ([3]; 1 μM peptide in hypotonic perfusate): completely blocked

Nc1ncnc2c1ncn2[C@@H]1O[C@H](COP(=O)(O)OP(=O)(O)OP(=O)(O)O)[C@@H](O)[C@H]1O [ATP]
Cell volume response following activation [4]: reversible volume changes
